Data from ChEMBL document CHEMBL4616633, “Citral Inhibits the Inflammatory Response and Hyperalgesia in Mice: The Role of TLR4, TLR2/Dectin-1, and CB2 Cannabinoid Receptor/ATP-Sensitive K+ Channel Pathways” (J Nat Prod, 2020).
Active and inactive are the calls of the source. No cut-off for these calls is given here.

Legend:
[1] = Psychoactive effect in Swiss mouse assessed as catalepsy effect at 1.5 mg/kg, ip and measured for 6 hrs; format: ADME, organism-based; settings: in vivo
[2] = Psychoactive effect in Swiss mouse assessed as antinociceptive effect by measuring paw withdrawal latencies at 1.5 mg/kg, ip and measured for 6 hrs; format: ADME, organism-based; settings: in vivo
[3] = Psychoactive effect in Swiss mouse assessed as hypothermic effects at 1.5 mg/kg, ip and measured for 6 hrs by thermometric method; format: ADME, organism-based; settings: in vivo
[4] = Psychoactive effect in Swiss mouse assessed as reduction in locomotor activity by measuring change in distance travelled at 1.5 mg/kg, ip and measured for 6 hrs; format: ADME, organism-based; settings: in vivo
Mus musculus [5] = assay: Inhibition of carrageenan-induced paw edema in Swiss mouse at 1.5 mg/kg, ip pretreated for 30 mins followed by carrageenan-stimulation and measured after 6 hrs; format: functional, organism-based
Mus musculus [6] = assay: Inhibition of carrageenan-induced thermal allodynia in Swiss mouse at 50 mg/kg, po pretreated for 1 hr followed by carrageenan-stimulation and measured after 6 hrs relative to control; format: functional
Mus musculus [7] = assay: Inhibition of carrageenan-induced paw edema in Swiss mouse at 50 mg/kg, po pretreated for 1 hr followed by carrageenan-stimulation and measured after 6 hrs relative to control; format: functional
[8] = Toxicity in Swiss mouse assessed as effect on triglycerides level weight at 5 to 2000 mg/kg, po after 14 days; format: organism-based; settings: in vivo, 336 h
[9] = Toxicity in Swiss mouse assessed as water consumption at 2000 mg/kg, po after 14 days (reference value: 50.5%); format: organism-based; settings: in vivo, 336 h
Mus musculus [10] = assay: Inhibition of carrageenan-induced thermal allodynia in Swiss mouse at 100 mg/kg, po pretreated for 1 hr followed by carrageenan-stimulation and measured after 6 hrs relative to control; format: functional
[11] = Toxicity in Swiss mouse assessed as effect on creatinine level weight at 5 to 2000 mg/kg, po after 14 days; format: organism-based; settings: in vivo, 336 h
[12] = Toxicity in Swiss mouse assessed as effect on touch sensitivity at 1000 mg/kg, po after 14 days; format: organism-based; settings: in vivo, 336 h
[13] = Toxicity in Swiss mouse assessed as effect on lung weight at 5 to 2000 mg/kg, po after 14 days; format: organism-based; settings: in vivo, 336 h
[14] = Toxicity in Swiss mouse assessed as effect on respiratory movement at 1000 mg/kg, po after 14 days; format: organism-based; settings: in vivo, 336 h
[15] = Toxicity in Swiss mouse assessed as effect on ALP level weight at 5 to 2000 mg/kg, po after 14 days; format: organism-based; settings: in vivo, 336 h
[16] = Toxicity in Swiss mouse assessed as food consumption at 1000 mg/kg, po after 14 days (reference value: 27.3%); format: organism-based; settings: in vivo, 336 h
[17] = Toxicity in Swiss mouse assessed as effect on uric acid level weight at 5 to 2000 mg/kg, po after 14 days; format: organism-based; settings: in vivo, 336 h
[18] = Toxicity in Swiss mouse assessed as effect on paradoxical breathing at 2000 mg/kg, po after 14 days; format: organism-based; settings: in vivo, 336 h
[19] = Toxicity in Swiss mouse assessed as food consumption at 50 mg/kg, po after 14 days (reference value: 27.3%); format: organism-based; settings: in vivo, 336 h
Mus musculus [20] = assay: Inhibition of carrageenan-induced paw edema in Swiss mouse at 50 mg/kg, po pretreated for 30 mins followed by carrageenan-stimulation and co-treated with CB2R antagonist AM630 and measured after 6 hrs; format: functional, organism-based
[21] = Toxicity in Swiss mouse assessed as effect on ALT level weight at 5 to 2000 mg/kg, po after 14 days; format: organism-based; settings: in vivo, 336 h
[22] = Psychoactive effect in Swiss mouse assessed as antinociceptive effect by measuring paw withdrawal latencies at 50 mg/kg, po and measured for 6 hrs; format: ADME, organism-based; settings: in vivo
[23] = Toxicity in Swiss mouse assessed as effect on kidney weight at 5 to 2000 mg/kg, po after 14 days; format: organism-based; settings: in vivo, 336 h
[24] = Toxicity in Swiss mouse assessed as water consumption at 300 mg/kg, po after 14 days (reference value: 50.5%); format: organism-based; settings: in vivo, 336 h
[25] = Toxicity in Swiss mouse assessed as effect on AST level weight at 5 to 2000 mg/kg, po after 14 days; format: organism-based; settings: in vivo, 336 h
[26] = Toxicity in Swiss mouse assessed as water consumption at 1000 mg/kg, po after 14 days (reference value: 50.5%); format: organism-based; settings: in vivo, 336 h
Mus musculus [27] = assay: Inhibition of carrageenan-induced paw edema in Swiss mouse at 50 mg/kg, po pretreated for 30 mins followed by carrageenan-stimulation and co-treated with CB1R antagonist AM281 and measured after 6 hrs; format: functional, organism-based
[28] = Toxicity in Swiss mouse assessed as effect on total protein level weight at 5 to 2000 mg/kg, po after 14 days; format: organism-based; settings: in vivo, 336 h
[29] = Toxicity in Swiss mouse assessed as food consumption at 5 mg/kg, po after 14 days (reference value: 27.3%); format: organism-based; settings: in vivo, 336 h
[30] = Toxicity in Swiss mouse assessed as effect on liver weight at 5 to 2000 mg/kg, po after 14 days; format: organism-based; settings: in vivo, 336 h
[31] = Toxicity in Swiss mouse assessed as effect on blood urea nitrogen level weight at 5 to 2000 mg/kg, po after 14 days; format: organism-based; settings: in vivo, 336 h
[32] = Toxicity in Swiss mouse assessed as food consumption at 300 mg/kg, po after 14 days (reference value: 27.3%); format: organism-based; settings: in vivo, 336 h
[33] = Toxicity in Swiss mouse assessed as food consumption at 2000 mg/kg, po after 14 days (reference value: 27.3%); format: organism-based; settings: in vivo, 336 h
[34] = Toxicity in Swiss mouse assessed as effect on total cholesterol level weight at 5 to 2000 mg/kg, po after 14 days; format: organism-based; settings: in vivo, 336 h
[35] = Toxicity in Swiss mouse assessed as effect on heart weight at 5 to 2000 mg/kg, po after 14 days; format: organism-based; settings: in vivo, 336 h
Mus musculus [36] = assay: Inhibition of carrageenan-induced thermal allodynia in Swiss mouse at 50 mg/kg, po pretreated for 30 mins followed by carrageenan-stimulation and co-treated with CB2R antagonist AM630 and measured after 6 hrs; format: functional, organism-based
Mus musculus [37] = assay: Inhibition of croton oil-induced ear edema in mouse at 0.1 mg/ear administered topically pretreated for 1 hr followed by croton oil-stimulation and measured after 6 hrs relative to control; format: functional
Mus musculus [38] = assay: Inhibition of carrageenan-induced paw edema in Swiss mouse at 300 mg/kg, po pretreated for 1 hr followed by carrageenan-stimulation and measured after 6 hrs relative to control; format: functional
Mus musculus [39] = assay: Inhibition of carrageenan-induced thermal allodynia in Swiss mouse at 50 mg/kg, po pretreated for 30 mins followed by carrageenan-stimulation and co-treated glibenclamide and measured after 6 hrs; format: functional, organism-based
Mus musculus [40] = assay: Inhibition of LPS-induced TLR4 pathway assessed as reduction in paw edema in Swiss mouse at 50 mg/kg, po pretreated for 1 hr followed by LPS-stimulation and measured after 48 hrs relative to control; format: functional
[41] = Toxicity in Swiss mouse assessed as reduction in locomotion at 1000 mg/kg, po after 14 days; format: organism-based; settings: in vivo, 336 h
[42] = Psychoactive effect in Swiss mouse assessed as reduction in locomotor activity by measuring change in distance travelled at 50 mg/kg, po and measured for 6 hrs; format: ADME, organism-based; settings: in vivo
[43] = Toxicity in Swiss mouse assessed as mortality at 5 to 1000 mg/kg, po after 14 days; format: organism-based; settings: in vivo, 336 h
[44] = Toxicity in Swiss mouse assessed as reduction in locomotion at 2000 mg/kg, po after 14 days; format: organism-based; settings: in vivo, 336 h
Mus musculus [45] = assay: Inhibition of carrageenan-induced paw edema in Swiss mouse at 100 mg/kg, po pretreated for 1 hr followed by carrageenan-stimulation and measured after 6 hrs relative to control; format: functional
[46] = Toxicity in Swiss mouse assessed as effect on touch sensitivity at 2000 mg/kg, po after 14 days; format: organism-based; settings: in vivo, 336 h
Mus musculus [47] = assay: Inhibition of croton oil-induced ear edema in mouse at 0.3 mg/ear administered topically pretreated for 1 hr followed by croton oil-stimulation and measured after 6 hrs relative to control; format: functional
[48] = Toxicity in Swiss mouse assessed as water consumption at 5 mg/kg, po after 14 days (reference value: 50.5%); format: organism-based; settings: in vivo, 336 h
Mus musculus [49] = assay: Inhibition of carrageenan-induced thermal allodynia in Swiss mouse at 50 mg/kg, po pretreated for 30 mins followed by carrageenan-stimulation and co-treated with CB1R antagonist AM281 and measured after 6 hrs; format: functional, organism-based
[50] = Toxicity in Swiss mouse assessed as water consumption at 50 mg/kg, po after 14 days (reference value: 50.5%); format: organism-based; settings: in vivo, 336 h
Mus musculus [51] = assay: Inhibition of carrageenan-induced thermal allodynia in Swiss mouse at 300 mg/kg, po pretreated for 1 hr followed by carrageenan-stimulation and measured after 6 hrs relative to control; format: functional
Mus musculus [52] = assay: Inhibition of zymosan-induced TLR2/Dectin-1 Signaling Pathway assessed as reduction in paw edema in Swiss mouse at 50 mg/kg, po pretreated for 1 hr followed by […] and measured after 48 hrs relative to control; format: functional
[53] = Toxicity in Swiss mouse assessed as increase in weight gain at 5 to 2000 mg/kg, po after 14 days; format: organism-based; settings: in vivo, 336 h
Mus musculus [54] = assay: Inhibition of carrageenan-induced paw edema in Swiss mouse at 50 mg/kg, po pretreated for 30 mins followed by carrageenan-stimulation and co-treated with glibenclamide and measured after 6 hrs; format: functional, organism-based
[55] = Psychoactive effect in Swiss mouse assessed as catalepsy effect at 50 mg/kg, po and measured for 6 hrs; format: ADME, organism-based; settings: in vivo
[56] = Toxicity in Swiss mouse assessed as effect on glucose level weight at 5 to 2000 mg/kg, po after 14 days; format: organism-based; settings: in vivo, 336 h
[57] = Psychoactive effect in Swiss mouse assessed as hypothermic effects at 50 mg/kg, po and measured for 6 hrs by thermometric method; format: ADME, organism-based; settings: in vivo

## Cc1c(C(=O)c2cccc3ccccc23)c2cccc3c2n1[C@H](CN1CCOCC1)CO3 [WIN-552122]
[1]
  Activity: Toxic
[2]
  Activity: Toxic
[3]
  Activity: Toxic
[4]
  Activity: Toxic
Mus musculus [5]
  inhibition: Active

## CC(C)=CCCC(C)=CC=O (mixture of isomers)
Mus musculus [6]
  inhibition in vivo at 50 mg/kg: 62%
Mus musculus [7]
  inhibition in vivo at 50 mg/kg: 57%
[8]
  Activity: Non-Toxic
[9]
  Activity: 15.6%
Mus musculus [10]
  inhibition in vivo at 100 mg/kg: 80%
[11]
  Activity: Non-Toxic
[12]
  Activity: Non-Toxic
[13]
  Activity: Non-Toxic
[14]
  Activity: Non-Toxic
[15]
  Activity: Non-Toxic
[16]
  Activity: 28.1%
[17]
  Activity: Non-Toxic
[18]
  Activity: Non-Toxic
[19]
  Activity: 21.4%
Mus musculus [20]
  inhibition: inactive
[21]
  Activity: Non-Toxic
[22]
  Activity: Non-Toxic
[23]
  Activity: Non-Toxic
[24]
  Activity: 36%
[25]
  Activity: Non-Toxic
[26]
  Activity: 40%
Mus musculus [27]
  inhibition: Active
[28]
  Activity: Non-Toxic
[29]
  Activity: 31.2%
[30]
  Activity: Non-Toxic
[31]
  Activity: Non-Toxic
[32]
  Activity: 28.1%
[33]
  Activity: 8.8%
[34]
  Activity: Non-Toxic
[35]
  Activity: Non-Toxic
Mus musculus [36]
  inhibition: inactive
Mus musculus [37]
  inhibition (INH): 22%
Mus musculus [38]
  inhibition in vivo at 300 mg/kg: 66%
Mus musculus [39]
  inhibition: inactive
Mus musculus [40]
  inhibition in vivo at 50 mg/kg: 70%
[41]
  Activity: Non-Toxic
[42]
  Activity: Non-Toxic
[43]
  Activity: Non-Toxic
[44]
  Activity: Non-Toxic
Mus musculus [45]
  inhibition in vivo at 100 mg/kg: 70%
[46]
  Activity: Non-Toxic
Mus musculus [47]
  inhibition (INH): 83%
[48]
  Activity: 44.4%
Mus musculus [49]
  inhibition: Active
[50]
  Activity: 37.5%
Mus musculus [51]
  inhibition in vivo at 300 mg/kg: 62%
Mus musculus [52]
  inhibition in vivo at 50 mg/kg: 45%
[53]
  Activity: Non-Toxic
Mus musculus [54]
  inhibition: inactive
[55]
  Activity: Non-Toxic
[56]
  Activity: Non-Toxic
[57]
  Activity: Non-Toxic
